{
  "source": "patent US8445539B2",
  "about": "“Alpha-aminoamide derivatives useful in the treatment of psychiatric disorders” (priority 2007, dated 2013)",
  "target": "MAO-B (Rattus norvegicus, UniProt P19643)",
  "sequence (P19643 whole entry)": "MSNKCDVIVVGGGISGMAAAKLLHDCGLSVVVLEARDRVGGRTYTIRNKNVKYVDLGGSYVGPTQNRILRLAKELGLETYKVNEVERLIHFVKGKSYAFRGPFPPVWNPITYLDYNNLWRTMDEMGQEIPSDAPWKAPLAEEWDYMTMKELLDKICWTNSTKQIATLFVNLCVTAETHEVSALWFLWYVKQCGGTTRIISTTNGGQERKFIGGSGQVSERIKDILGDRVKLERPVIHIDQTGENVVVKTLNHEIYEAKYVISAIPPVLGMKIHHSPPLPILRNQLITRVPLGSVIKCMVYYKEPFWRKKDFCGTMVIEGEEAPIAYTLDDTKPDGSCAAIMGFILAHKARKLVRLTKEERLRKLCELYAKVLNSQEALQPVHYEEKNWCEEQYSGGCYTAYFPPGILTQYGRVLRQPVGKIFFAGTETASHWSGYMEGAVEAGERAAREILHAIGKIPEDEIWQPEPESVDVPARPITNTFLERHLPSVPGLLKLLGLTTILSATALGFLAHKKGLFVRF",
  "assay": "biochemical",
  "method": "The crude homogenate was centrifuged at 2220 rpm for 10 minutes at +4° C. and the supernatant recovered. The pellet was homogenized and centrifuged again. The two supernatants were pooled and centrifuged at 9250 rpm for 10 minutes. The pellet was resuspended in fresh buffer and centrifuged at 11250 rpm for 10 minutes at +4° C. The resulting pellet was stored at −80° C.\nThe mitochondrial pellet (500 μg protein) was resuspended in 0.1 M phosphate buffer (pH 7.4). 500 μl of the suspension were added to a 50 μl solution of the test compound or buffer, and incubated for 30 min at 37° C. (preincubation) then the substrate (50 μl) was added. […] (^14C-PEA, 0.5 μM).\nThe amount of neutral and/or acidic metabolites formed as a result of MAO activity was obtained by measuring the radioactivity of the eluate.\nThe activity of MAO in the sample, corresponding to a percentage of radioactivity compared with the control activity in the absence of the inhibitor, was expressed as nmoles of substrate transformed/mg protein/min.",
  "data": [
    {"smiles": "C[C@H](NCc1ccc(OCc2ccccc2F)cc1)C(N)=O", "note": "[Ralfinamide methanesulfonate, (S)-(+)-2-[4-(2-fluorobenzyloxy)benzylamino]propanamide]", "values": [
      {"measurement": "IC50", "value": 132, "unit": "nM"}
    ]}
  ]
}
